According to patent publication US20260256811A1, “Humoral Immune Activators for the Treatment of Humoral Immunosuppressed Pathologies, Cancer and Infectious Disease and Humoral Immune Suppressors for the Treatment of Inflammatory Diseases” (Navrogen, Inc., priority 2022, published 2026):

Experiments:
CD16a-158F FcR = biological target: T1, CD16a-158F FcR (Homo sapiens, UniProt P08637); experiment: Jurkat-CD16a-158F-luciferase (JKT-CD16a) reporter bioassay; format: cell-based
T1 construct: host or cells: Jurkat (JKT-CD16a luciferase reporter line)

[1] = Metabolic stability in human liver microsomes; format: in vitro ADME
Experimental: (§1) We next tested Compounds 2, 26, 27 and 33 for metabolic stability using human and mouse microsomes. For each test compound, samples were diluted a final concentration of 2 μg/mL in 25 mM potassium phosphate buffer with liver microsomes of each species at a final concentration of 0.5 mg/mL. The enzyme reaction was initiated by the addition of NADPH reagent at a final concentration of 1 mM. For negative control samples, NADPH reagent was not added. Samples were incubated at 37° C. on a 50-RPM orbital shaker, and an aliquot was removed at pre-determined timepoints at 0, 5, 10, 15, 30, and 60 minutes. Samples were then precipitated with three volume of acetonitrile containing propranolol as an internal standard, and centrifuged for 10 min at 2000 g then analyzed by LC/MS/MS. Note that compounds undergo only Phase I metabolism in liver microsomes in the presence of NADPH cofactors. Data interpretation of results are based on percent parent compound remaining relative to 0-minute incubation samples, from which the elimination half-life is calculated based on the natural log of % compound remaining vs. time plot. The following parameters were calculated to estimate the compound's in vitro metabolic stability: Cmp=concentration of microsomal proteins (mg/mL); t1/2=the half-life (min), where t1/2 is equal to 0.693/slope; CLint=the intrinsic hepatic clearance (μL/min/mg), where CLint is equal to 0.693/(t1/2×Cmp).

human CD16a-158F = biological target: T2, human CD16a-158F (Homo sapiens, UniProt P08637); experiment: ELISA: CD16a-158F-HIS binding to coated pertuzumab (PTZ); details: for enhancement of CD16a-158F binding to IgG (PTZ): 10 μM, P<0.005; for suppression of CD16a-PTZ interaction: 2.5 μg/mL PTZ coat, human CD16a-158F-HIS probe, P≤0.005
T2 construct: made in house
Experimental: (§2) Analysis of Compound 2 derived analogs described in Example 3 were conducted testing for enhanced CD16a FcR binding to IgG via ELISA. Briefly, 96 well plates were coated with PTZ as described above and probed with CD16a-158F-HIS in the presence of 10 μM parental Compound 2 and R5/R6 Compound analogs 22-34 to assay for those mediating enhanced CD16a-IgG binding. […] To further evaluate the impact of enhanced binding these compounds were tested for enhancing human PBMC ADCC as described above. Human breast cancer SKBR3 cells were plated in black 96-well microplates at 5,000 cell/well in R7.5 and grown overnight at 37° C. in 5% CO2. The next day 50,000 PBMCs in R1 medium were added per well in the presence of 1 or 5 μM of each compound or ethanol (EtOH) vehicle control in triplicates. Wells treated with EtOH and PTZ without PBMCs were used as a negative control. Cultures were incubated for 24 hours at 37° C. in 5% CO2 in triplicate. After incubation, target cell viability was quantified via Cell Titer-GLO (Promega) using a Varioskan plate reader. Units are shown as relative luminescent units (RLU).
Analogs of this class may be useful for suppressing inflammatory diseases. […] The teaching here has shown that the Compound 1, 2, 3 and 4 scaffolds can be utilized to add chemical groups that can enhance their activity for CD16a stimulation. Here we provide an example of how these scaffolds can be used to develop CD16a antagonists to suppress CD16a-IgG interactions and downstream activities, including production of proinflammatory cytokines such as IFNγ. FIGS. 10 and 13 show ELISA binding assays as described in Example 1. Briefly, 96-well clear microplates were coated with 2.5 μg/mL pertuzumab (PTZ) IgG or HSA as negative control (no PTZ). Wells were then probed with human CD16a-158F-HIS with or without compounds to monitor CD16a-PTZ binding. […] These scaffolds embody a primary inventive step that is taught within this application.

[2] = Metabolic stability in mouse liver microsomes; format: in vitro ADME
Experimental: as §1

NK cells = experiment: Tolerability and NK cell activation markers after repeated oral dosing in mice; format: in vivo, mouse
Experimental: To determine the tolerability and ability to systemically activate NK cells in mice, we tested orally administered Compound 27 to mice. Six mice were randomized into treatment groups vehicle control (water) and 100 mg/kg Compound 27 all suspended in 0.5% hydroxypropyl methylcellulose. Mice were dosed orally on days 1-5, 7, 9, 11, 13, 15 and sacrificed on day 16 at which time plasma was collected. Tolerability was based on Day 1 bodyweight of each mouse. The maximum tolerated dose is determined as weight loss exceeding 20% or >10% of animals in a group die.
To confirm that oral administration of Compound 27 activated NK cells, the NK activation markers IFNγ and TNFα were measured from day 16 harvested plasma via ELISA using methods described in Example 1. […] These scaffolds embody a primary inventive step that is taught within this application.

in vivo = details: mouse, po, 100 mg/kg
Experimental: To further determine the pharmacologic properties of Compound 27, we tested for its oral bioavailability and ability to activate NK cells systemically in mice as determined measuring NK cell activation markers IFNγ and TNFα. For oral bioavailability, mice were fed a standard laboratory rodent diet and housed in individual cages on a 12-hour light and 12-hour dark cycle with at […] and relative humidity at 50±20%. Animals are fasted overnight before dosing, with food returned after 6 hours at which time blood samples are obtained. Water is provided ad libitum throughout the study. Compound 27 was prepared by grinding its precipitated powder into fine particles and suspended in 0.5% hydroxypropyl methylcellulose (HPMC) in water. Three animals were dosed via gavage needle for oral administration at 100 mg/kg (10 mL/kg). Blood samples (25-30 μL per sample) were taken via the saphenous vein at 5, 15, 30 minutes, and 1, 2, 4, 6, 8, 24 hours after administration. Additional blood samples (150-200 μL per sample) were taken at 24 hours for cytokine analysis. Blood samples were collected in Greiner MiniCollect K2EDTA tubes, placed on ice, and within 30 minutes, centrifuged at 15,000 g for 5 min to obtain plasma samples with additional 50-100 μLs of each plasma sample collected at 24 hours. All plasma samples were stored at −70° C. until analysis.
Bioanalysis of plasma samples were conducted as follows. Plasma samples were prepared using three volumes of acetonitrile containing internal standard to one volume of plasma to precipitate proteins. Samples were centrifuged at 3000 g for 10 minutes and supernatant removed for analysis by LC-MS/MS. Calibration standards and quality controls were made by preparation of a 1 mg/mL stock solution and subsequently a series of working solutions in methanol:water (1:1, v/v), which were spiked into blank plasma to yield a series of calibration standard samples ranging from 1 ng/ml to 10 μg/mL and quality control samples at three concentration levels (low, middle and high). All incurred plasma samples were treated identically to the calibration standards and quality control samples. LC-MS/MS analysis was performed utilizing multiple reaction monitoring for detection of characteristic ions for each drug candidate, additional related analytes and internal standard. Plasma concentrations are measured as described above to determine a concentration vs. time profile. The area under the plasma concentration vs time curve (AUC) is calculated using the linear trapezoidal method, known by those skilled in the art. Fitting of the data to obtain pharmacokinetic (PK) parameters was carried out using non-compartmental analysis.
Key PK parameters reported following extravascular administration are as follows: terminal half-life t1/2, maximum plasma concentration Cmax, time to reach maximum plasma concentration tmax, area under the plasma concentration vs. time curve AUC, mean residence time MRT, and bioavailability F. All parameters are expressed for individual animals as well as mean, standard deviation, and coefficient of variation and are commonly known by those skilled in the art.

SKBR3 cells = experiment: ADCC killing of SKBR3 cells via pertuzumab with human PBMCs; format: cell-based; details: 1 or 5 μM, PTZ, 24 hours, P<0.0000075 over Compound 2
Experimental: as §2

T2 sequence (P08637 with tags, fused parts or gaps): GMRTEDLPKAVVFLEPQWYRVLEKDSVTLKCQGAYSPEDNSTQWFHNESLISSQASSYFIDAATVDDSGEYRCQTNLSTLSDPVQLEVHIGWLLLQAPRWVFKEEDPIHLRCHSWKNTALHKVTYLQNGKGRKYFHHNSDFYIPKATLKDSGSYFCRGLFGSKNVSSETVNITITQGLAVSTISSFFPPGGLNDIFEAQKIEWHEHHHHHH
T1 sequence (P08637 17-254): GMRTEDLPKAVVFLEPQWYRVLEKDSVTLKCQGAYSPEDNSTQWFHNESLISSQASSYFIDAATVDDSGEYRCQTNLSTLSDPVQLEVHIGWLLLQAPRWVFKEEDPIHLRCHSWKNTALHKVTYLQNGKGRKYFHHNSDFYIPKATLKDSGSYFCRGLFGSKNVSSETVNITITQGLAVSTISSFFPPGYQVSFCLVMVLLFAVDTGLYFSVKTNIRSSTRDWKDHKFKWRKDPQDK
T1 sequence (P20963 22-164 partner): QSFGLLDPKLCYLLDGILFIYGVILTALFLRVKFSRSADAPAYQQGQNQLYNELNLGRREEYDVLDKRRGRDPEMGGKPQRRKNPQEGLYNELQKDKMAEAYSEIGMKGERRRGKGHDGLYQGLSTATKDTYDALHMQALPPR

## CC(C)=CCC[C@@H](C)[C@H]1CC[C@@]2(C)C3=C(CC[C@]12C)[C@@]1(C)CC[C@H](O)C(C)(C)[C@@H]1CC3 [Compound 1, lanosta-8,24-dien-3β-ol]
CD16a-158F FcR; OV-CD20 target cells plus 2.5 μg/mL rituximab, 12-18 hours, vs vehicle or no compound
  JKT-CD16a activation (luciferase RLU) in the presence of IgG: significant enhancement
CD16a-158F FcR; OV-CD20 target cells without antibody, lower levels than with IgG
  JKT-CD16a-158F FcR activation (luciferase RLU) in the absence of IgG antibody: stimulated

## CC(C)NCCC[C@@H](C)[C@H]1CC[C@@]2(C)C3CC[C@H]4C(C)(C)[C@@H](O)CC[C@@]45C[C@@]35CC[C@]12C (stereo partly drawn) [Compound 26]
[1]; human liver microsomes 0.5 mg/mL, 2 μg/mL compound, NADPH, read-out: CLint (μL/min/mg protein) human
  microsomal CLint at 2 μg/mL: 3.04 µL/min/mg
[1]; human liver microsomes 0.5 mg/mL, 2 μg/mL compound, NADPH, read-out: T½ (minutes) human
  half-life at 2 μg/mL: 456 min
Human CD16a-158F
  enhancement of CD16a-158F binding to IgG (PTZ): significantly enhanced
[2]; mouse liver microsomes 0.5 mg/mL, 2 μg/mL compound, NADPH, read-out: CLint (μL/min/mg protein) mouse
  microsomal CLint at 2 μg/mL: 2.16 µL/min/mg
[2]; mouse liver microsomes 0.5 mg/mL, 2 μg/mL compound, NADPH, read-out: T½ (minutes) mouse
  half-life at 2 μg/mL: 641 min

## C[C@H](CCCN1CCCCC1)[C@H]1CC[C@@]2(C)C3CC[C@H]4C(C)(C)[C@@H](O)CC[C@@]45C[C@@]35CC[C@]12C (stereo partly drawn) [Compound 27]
[1]; human, microsomes
  half-life at 2 μg/mL: 701 min
  microsomal CLint at 2 μg/mL: 1.98 µL/min/mg
Human CD16a-158F
  enhancement of CD16a-158F binding to IgG (PTZ): significantly enhanced
NK cells; 100 mg/kg oral on days 1-5, 7, 9, 11, 13, 15
  tolerability of multiple oral dosing (health, body weight): well tolerated
NK cells; 100 mg/kg oral, day 16 plasma, ELISA, vs vehicle, P<0.0056
  plasma NK cell activation markers IFNγ and TNFα: upregulated
In vivo
  AUC(0-t): 7750 ng·h/mL
  Cmax: 511 ng/mL
  Tmax: ≤ 6 h
  bioavailability: 11.7%
  concentration at 24 hours: 242 ng/mL
  half-life: 18.3 h
SKBR3 cells
  enhancement of ADCC killing of SKBR3 cells: enhanced ADCC most significantly
[2]; mouse, microsomes
  half-life at 2 μg/mL: 610 min
  microsomal CLint at 2 μg/mL: 2.27 µL/min/mg

## C[C@H](CCC(=O)O)[C@H]1CC[C@@]2(C)C3CC[C@H]4C(C)(C)[C@@H](O)CC[C@@]45C[C@@]35CC[C@]12C (stereo partly drawn) [Compound 29]
Human CD16a-158F
  suppression of CD16a-PTZ interaction: ~ 49%

## C[C@H](CCCO)[C@H]1CC[C@@]2(C)C3CC[C@H]4C(C)(C)[C@@H](O)CC[C@@]45C[C@@]35CC[C@]12C (stereo partly drawn) [Compound 31]
Human CD16a-158F
  suppression of CD16a-PTZ interaction: ~ 49%

## C[C@H](CCCNCCOCCO)[C@H]1CC[C@@]2(C)C3CC[C@H]4C(C)(C)[C@@H](O)CC[C@@]45C[C@@]35CC[C@]12C (stereo partly drawn) [Compound 32]
Human CD16a-158F
  suppression of CD16a-PTZ interaction: ~ 49%

## C[C@H](CCCNCCOCCOCCOCCOCCOCCOCCOCCOCCOCCOCCOCCO)[C@H]1CC[C@@]2(C)C3CC[C@H]4C(C)(C)[C@@H](O)CC[C@@]45C[C@@]35CC[C@]12C (stereo partly drawn) [Compound 33]
[1]; human, microsomes
  half-life at 2 μg/mL: 64.5 min
  microsomal CLint at 2 μg/mL: 21.5 µL/min/mg
Human CD16a-158F
  enhancement of CD16a-158F binding to IgG (PTZ): significantly enhanced
SKBR3 cells
  enhancement of ADCC killing of SKBR3 cells: enhanced ADCC most significantly
[2]; mouse, microsomes
  half-life at 2 μg/mL: 65.8 min
  microsomal CLint at 2 μg/mL: 21.1 µL/min/mg
